pIC50: −log10 of the molar value. Read-outs that look alike come from different tables or passages of the source.
Tests used:
[1] = molecular target: T1, human CB1 receptor (Homo sapiens, UniProt P21554); experiment: Binding assay for CB1 agonists or inverse agonists, [3H]-CP-55,940 displacement on membranes of transfected SK-N-MC cells; conditions: for inhibition at 0.2 µM: read-out: Cannabinoid CB1 Receptor Binding percent inhibition
T1 construct: expressed in transfected cells; host or cells: SK-N-MC cells, stably transfected with pcDNA3 CB-1 (human); semi-purified membrane pellet
T1 sequence (P21554 whole entry): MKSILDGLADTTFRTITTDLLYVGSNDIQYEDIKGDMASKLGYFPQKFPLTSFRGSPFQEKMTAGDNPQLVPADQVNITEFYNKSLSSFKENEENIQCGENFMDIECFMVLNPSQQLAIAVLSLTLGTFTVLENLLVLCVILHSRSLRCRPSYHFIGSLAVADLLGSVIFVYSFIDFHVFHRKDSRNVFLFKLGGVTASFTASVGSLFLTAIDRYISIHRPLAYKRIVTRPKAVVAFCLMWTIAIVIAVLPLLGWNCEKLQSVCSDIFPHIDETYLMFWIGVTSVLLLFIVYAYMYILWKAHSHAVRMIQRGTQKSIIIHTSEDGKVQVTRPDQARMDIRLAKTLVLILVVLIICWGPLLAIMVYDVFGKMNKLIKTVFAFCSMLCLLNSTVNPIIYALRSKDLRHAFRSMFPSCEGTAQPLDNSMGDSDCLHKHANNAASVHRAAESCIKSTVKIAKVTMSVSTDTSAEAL
Method: (§1) The human CB1 and CB2 receptors were stably expressed in SK-N-MC cells transfected with pcDNA3 CB-1 (human) or pcDNA3 CB-2 (human). The cells were grown in T-180 cell culture flasks under standard cell culture conditions at 37° C. in a 5% CO2 atmosphere. The cells were harvested by trysinization and homogenized in a homogenization buffer (10 mM Tris, 0.2 mM MgCl2, 5 mM KCl, with protease inhibitors aprotinin, leupeptin, pepstatin A and bacitracin) and centrifuged (2000 g). The supernatant was then centrifuged in 2M sucrose (31,300 g) to produce a semi-purified membrane pellet. The pellet was resuspended in homogenization and stored at −80° C.
(§2) On the day of the assay, the pellet was thawed on ice and diluted in assay buffer (50 mM Tris-HCl, 5 mM MgCl2, 2.5 mM EDTA, 0.5 mg/mL fatty acid free bovine serum albumin, pH 7.5). […] The plate was covered and incubated for 90 minutes at 30° C. The contents were then aspirated onto a Packard Unifilter GF/C filter bottom plate prewet with 0.5% polyethyleneimine. The wells of the polypropylene plate were rinsed and aspirated seven times with a 0.9% saline-0.5% Tween 20 solution. The Unifilter plate was dried, a scintillation cocktail was added to each well and the counts representing binding were quantitated in a TopCount scintillation counter.
(§3) For compounds tested, an IC50 binding value was obtained from percent inhibition studies in which various test concentrations were used. The binding value was calculated by linear regression. An average value is shown for those compounds where two or more IC50 values were obtained.
(§4) An average value is shown for those compounds where two or more percent inhibition values were obtained.

[2] = molecular target: T2, human CB2 receptor (Homo sapiens, UniProt P34972); experiment: Binding assay for CB2 agonists or inverse agonists, [3H]-CP-55,940 displacement on membranes of transfected SK-N-MC cells
T2 construct: expressed in transfected cells; host or cells: SK-N-MC cells, stably transfected with pcDNA3 CB-2 (human); semi-purified membrane pellet
T2 sequence (P34972 whole entry): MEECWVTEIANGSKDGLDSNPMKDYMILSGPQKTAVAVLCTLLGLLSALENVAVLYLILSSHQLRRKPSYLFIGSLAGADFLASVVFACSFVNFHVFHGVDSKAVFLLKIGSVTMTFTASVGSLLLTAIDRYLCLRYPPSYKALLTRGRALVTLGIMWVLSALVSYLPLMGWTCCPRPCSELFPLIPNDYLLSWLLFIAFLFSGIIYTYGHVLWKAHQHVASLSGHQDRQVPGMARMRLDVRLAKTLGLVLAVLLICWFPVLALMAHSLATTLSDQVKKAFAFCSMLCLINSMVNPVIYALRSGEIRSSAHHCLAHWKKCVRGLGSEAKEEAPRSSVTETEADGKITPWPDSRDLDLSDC
Method: as §1, §2, §3, §4

[3] = read-out: Cannabinoid CB2 Receptor Binding percent inhibition

SMILES	pIC50 [1]	inhibition at 0.2 µM [2, 3] [%]	also measured
C[C@@H](NC(=O)C1CCCc2c1nn(-c1ccc(Cl)cc1Cl)c2-c1ccc(Cl)cc1)C1CCCCC1 (stereo partly drawn) [Cpd 29, 3-(4-chloro-phenyl)-2-(2,4-dichloro-phenyl)-4,5,6,7-tetrahydro-2H-indazole-7-carboxylic acid [(1R)-1-cyclohexyl-ethyl]-amide]	9.00	7	
C[C@@H](NC(=O)[C@H]1CCCc2c1nn(-c1ccc(Cl)cc1Cl)c2-c1ccc(Cl)s1)c1ccccc1 [Cpd 48, (7S)-3-(5-chloro-thiophen-2-yl)-2-(2,4-dichloro-phenyl)-4,5,6,7-tetrahydro-2H-indazole-7-carboxylic acid [(1R)-1-phenyl-ethyl]-amide]		0	inhibition at 0.2 µM [1]: 38%
C[C@@H](NC(=O)[C@H]1CCCc2c1nn(-c1ccc(Cl)cc1Cl)c2-c1ccc(Br)s1)c1ccccc1 [Cpd 52, (7S)-3-(5-bromo-thiophen-2-yl)-2-(2,4-dichloro-phenyl)-4,5,6,7-tetrahydro-2H-indazole-7-carboxylic acid [(1R)-1-phenyl-ethyl]-amide]		20	inhibition at 0.2 µM [1]: 44%
O=C(NN1CCCCCC1)C1CCCc2c1nn(-c1ccc(Cl)cc1Cl)c2-c1ccc(Cl)cc1 (stereo not drawn) [Cpd 34, 3-(4-chloro-phenyl)-2-(2,4-dichloro-phenyl)-4,5,6,7-tetrahydro-2H-indazole-7-carboxylic acid azepan-1-ylamide]	7.46	0	
O=C(NN1CC2CCCC2C1)C1CCCc2c1nn(-c1ccc(Cl)cc1Cl)c2-c1ccc(Cl)cc1 (stereo not drawn) [Cpd 50, 3-(4-chloro-phenyl)-2-(2,4-dichloro-phenyl)-4,5,6,7-tetrahydro-2H-indazole-7-carboxylic acid (hexahydro-cyclopenta[c]pyrrol-2-yl)-amide]		3	inhibition at 0.2 µM [1]: 39%
C[C@@H](NC(=O)[C@H]1CCCc2c1nn(-c1ccc(Cl)cc1Cl)c2-c1ccc(Cl)cc1)c1ccccc1 [Cpd 39, (7S)-3-(4-chloro-phenyl)-2-(2,4-dichloro-phenyl)-4,5,6,7-tetrahydro-2H-indazole-7-carboxylic acid [(1R)-1-phenyl-ethyl]-amide]	7.66	1	
C[C@@H](NC(=O)[C@@H]1CCCc2c1nn(-c1ccc(Cl)cc1Cl)c2-c1ccc(Cl)s1)c1ccccc1 [Cpd 49, (7R)-3-(5-chloro-thiophen-2-yl)-2-(2,4-dichloro-phenyl)-4,5,6,7-tetrahydro-2H-indazole-7-carboxylic acid [(1R)-1-phenyl-ethyl]-amide]	8.15	14	
COc1ccc(-c2c3c(nn2-c2ccc(Cl)cc2Cl)C(C(=O)NN2CCCCC2)CCC3)cc1 (stereo not drawn) [Cpd 21, 2-(2,4-dichloro-phenyl)-3-(4-methoxy-phenyl)-4,5,6,7-tetrahydro-2H-indazole-7-carboxylic acid piperidin-1-ylamide]		18	inhibition at 0.2 µM [1]: 42%
Cc1ccc(-c2c3c(nn2Cc2ccccc2)C(C(=O)NC(C)C24CC5CC(CC(C5)C2)C4)CCC3)cc1 (stereo not drawn) [Cpd 7, 2-benzyl-3-p-tolyl-4,5,6,7-tetrahydro-2H-indazole-7-carboxylic acid (1-adamantan-1-yl-ethyl)-amide]	6.43		pIC50 [2]: 6.10
COc1ccc(-n2nc3c(c2-c2ccc(C)cc2)CCCC3C(=O)N[C@@H]2C3CCC(C3)[C@@H]2CO)cc1 (stereo partly drawn) [Cpd 17, 2-(4-methoxy-phenyl)-3-p-tolyl-4,5,6,7-tetrahydro-2H-indazole-7-carboxylic acid [(2R,3S)-3-hydroxymethyl-bicyclo[2.2.1]hept-2-yl]-amide]	5.74		pIC50 [2]: 5.80
C[C@@H](NC(=O)C1CCCc2c1nn(-c1ccc(Cl)cc1Cl)c2-c1ccc(F)cc1)C1CCCCC1 (stereo partly drawn) [Cpd 36, 2-(2,4-dichloro-phenyl)-3-(4-fluoro-phenyl)-4,5,6,7-tetrahydro-2H-indazole-7-carboxylic acid [(1R)-1-cyclohexyl-ethyl]-amide]	8.70	0	
C[C@@H](NC(=O)[C@@H]1CCCc2c1nn(-c1ccc(Cl)cc1Cl)c2-c1ccc(Br)cc1)c1ccccc1 [Cpd 46, (7R)-3-(4-bromo-phenyl)-2-(2,4-dichloro-phenyl)-4,5,6,7-tetrahydro-2H-indazole-7-carboxylic acid [(1R)-1-phenyl-ethyl]-amide]	9.10	28	
COc1ccc(-n2nc3c(c2-c2ccc(C)cc2)CCCC3C(=O)N[C@H]2C3(C)CCC(C3)C2(C)C)cc1 (stereo partly drawn) [Cpd 16, 2-(4-methoxy-phenyl)-3-p-tolyl-4,5,6,7-tetrahydro-2H-indazole-7-carboxylic acid [(2S)-1,3,3-trimethyl-bicyclo[2.2.1]hept-2-yl]-amide]			pIC50 ([1]; radioligand CP-55,940 0.2 nM, average where two or more values, read-out: Cannabinoid CB1 Receptor Binding IC50): 6.74; inhibition at 25 µM [2, 3]: 66%
CCOC(=O)[C@H]1C2CCC(C2)[C@@H]1NC(=O)C1CCCc2c1nn(-c1ccc(OC)cc1)c2-c1ccc(C)cc1 (stereo partly drawn) [Cpd 3, (2S,3S)-3-{[2-(4-methoxy-phenyl)-3-p-tolyl-4,5,6,7-tetrahydro-2H-indazole-7-carbonyl]-amino}-bicyclo[2.2.1]heptane-2-carboxylic acid ethyl ester]	7.22		pIC50 ([2]; radioligand CP-55,940 0.2 nM, average where two or more values, read-out: Cannabinoid CB2 Receptor Binding IC50): 6.43
Cc1ccc(-c2c3c(nn2Cc2ccccc2)C(C(=O)NC(C)C2CCCCC2)CCC3)cc1 (stereo not drawn) [Cpd 8, 2-benzyl-3-p-tolyl-4,5,6,7-tetrahydro-2H-indazole-7-carboxylic acid (1-cyclohexyl-ethyl)-amide]	6.62		pIC50 [2]: 5.96
COc1ccc(-c2c3c(nn2-c2ccc(Cl)cc2Cl)C(C(=O)NN(C)c2ccccc2)CCC3)cc1 (stereo not drawn) [Cpd 26, 2-(2,4-dichloro-phenyl)-3-(4-methoxy-phenyl)-4,5,6,7-tetrahydro-2H-indazole-7-carboxylic acid N′-methyl-N′-phenyl-hydrazide]	8.22	32	
C[C@@H](NC(=O)[C@@H]1CCCc2c1nn(-c1ccc(Cl)cc1Cl)c2-c1ccc(Br)s1)c1ccccc1 [Cpd 53, (7R)-3-(5-bromo-thiophen-2-yl)-2-(2,4-dichloro-phenyl)-4,5,6,7-tetrahydro-2H-indazole-7-carboxylic acid [(1R)-1-phenyl-ethyl]-amide]	8.40	36	
CC(NC(=O)C1CCCc2c1nn(Cc1ccccc1)c2-c1ccc(Cl)cc1)C1CCCCC1 (stereo not drawn) [Cpd 5, 2-benzyl-3-(4-chloro-phenyl)-4,5,6,7-tetrahydro-2H-indazole-7-carboxylic acid (1-cyclohexyl-ethyl)-amide]	6.15		pIC50 [2]: 5.21
CC(NC(=O)C1CCCc2c1nn(Cc1ccccc1)c2-c1cccc(F)c1)C12CCC3CC(CC3C1)C2 (stereo not drawn) [Cpd 20, 2-benzyl-3-(3-fluoro-phenyl)-4,5,6,7-tetrahydro-2H-indazole-7-carboxylic acid [1-(octahydro-2,5-methano-inden-5-yl)-ethyl]-amide]	6.89		pIC50 [2]: 7.15
COc1ccc(-c2c3c(nn2-c2ccc(Cl)cc2Cl)C(C(=O)NN2CC4CCCC4C2)CCC3)cc1 (stereo not drawn) [Cpd 28, 2-(2,4-dichloro-phenyl)-3-(4-methoxy-phenyl)-4,5,6,7-tetrahydro-2H-indazole-7-carboxylic acid (hexahydro-cyclopenta[c]pyrrol-2-yl)-amide]		23	inhibition at 0.2 µM [1]: 59%
C[C@@H](NC(=O)C1CCCc2c1nn(-c1ccc(Cl)cc1Cl)c2-c1ccc(Br)cc1)C1CCCCC1 (stereo partly drawn) [Cpd 44, 3-(4-bromo-phenyl)-2-(2,4-dichloro-phenyl)-4,5,6,7-tetrahydro-2H-indazole-7-carboxylic acid [(1R)-1-cyclohexyl-ethyl]-amide]	8.70	21	

Reference: US7795294B2, “Tetrahydro-2H-indazole pyrazole cannabinoid modulators” (Janssen Pharmaceutica N.V., priority 2006, dated 2010)
